We go through eight compounds from PubChem BioAssay (NCI).

“And” between values parts separate entries of the source, which are not always exact repeats. Equal values may be shown once.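 How tested: cells in 96-well plates exposed to compound for 48 hours at five concentrations. Here, GI50 denotes the concentration required for 50% inhibition of growth. Definition used: TGI = concentration required for complete inhibition of growth.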

Some test systems named below: CAKI-1 renal; HOP-92 NSCLC; HT29 colon; IGROV1 ovarian; K-562 leukemia; KM12 colon; LOX IMVI melanoma; RXF 393 renal; SK-OV-3 ovarian; SN12C renal.
Holding throughout (assay): inhibition of tumour cell growth, NCI panel, 48 h

For `CC(C)(C)C[C@H]1N[C@@H](C(=O)NC2CCC(O)CC2)[C@H](c2cccc(Cl)c2F)[C@@]12C(=O)Nc1cc(Cl)ccc12` (some centres not stated), the GI50 in the assay on CAKI-1 renal was 0.162 µM; with HOP-92 NSCLC, 3.28 µM; in the assay with HT29 colon, 4.34 µM; in the assay with IGROV1 ovarian, 2.07 µM; with K-562 leukemia, 4.15 µM; with KM12 colon, 6.85 µM. Further, the GI50 in the assay with LOX IMVI melanoma is 0.577 µM; in the assay with RXF 393 renal, 3.38 µM; in the assay with SK-OV-3 ovarian, 11.2 µM; with SN12C renal, 6.26 µM. The TGI in the assay with CAKI-1 renal came to 12.4 µM; in the assay with HOP-92 NSCLC, 15 µM; with HT29 colon, 19.9 µM; in the assay on IGROV1 ovarian it was 16.7 µM; with K-562 leukemia it was 18.7 µM; in the assay on KM12 colon it was 22.1 µM. Further, the TGI stood at 18.1 µM in the assay on LOX IMVI melanoma, 17.2 µM in the assay on RXF 393 renal, 23.8 µM with SK-OV-3 ovarian and 21.2 µM in the assay with SN12C renal.
`CCCCCCCC(=O)OCC/C=C/C1OC1C1OC(=O)/C=C\C=C\C(=O)N(C(C)=O)C(=O)/C=C(/C)CCC2OC2C1OC(=O)NC(C)=O` (configuration not stated): the GI50 with CAKI-1 renal is 15 µM; with HOP-92 NSCLC, 0.823 µM; in the assay with HT29 colon it was 4.03 µM; in the assay with IGROV1 ovarian it was 3.21 µM; with K-562 leukemia, 4.78 µM; in the assay with KM12 colon, 3.88 µM. For the same compound, the GI50 is 2.93 µM in the assay with LOX IMVI melanoma, 4.34 µM with RXF 393 renal, over 25 µM in the assay on SK-OV-3 ovarian and 7.29 µM in the assay on SN12C renal. For the same compound, the TGI in the assay on CAKI-1 renal was over 25 µM; with HOP-92 NSCLC, 7.38 µM; in the assay with HT29 colon, 14.4 µM; in the assay with IGROV1 ovarian, 8.28 µM; in the assay on K-562 leukemia, over 25 µM; in the assay with KM12 colon it was 11.7 µM. Besides, the TGI is 6.74 µM in the assay on LOX IMVI melanoma, 9.45 µM in the assay on RXF 393 renal, over 25 µM in the assay on SK-OV-3 ovarian and over 25 µM in the assay with SN12C renal.
For the compound `[N-]=[N+]=CC(=O)CCC(N)C(=O)O` (configuration not stated), the GI50 was 10.9 µM in the assay on CAKI-1 renal; 0.727 µM with HT29 colon; 3.51 µM with IGROV1 ovarian; 3.27 µM with K-562 leukemia; 3.14 µM in the assay on KM12 colon; 0.793 µM with LOX IMVI melanoma. Besides, the GI50 with RXF 393 renal was 24.6 µM; in the assay with SN12C renal, 4.86 µM. Besides, the TGI in the assay with CAKI-1 renal was 84.5 µM; in the assay on HOP-92 NSCLC, 69.3 µM; in the assay on HT29 colon, 75.7 µM; in the assay on IGROV1 ovarian, 43 µM and > 134 µM; in the assay on K-562 leukemia, over 250 µM; in the assay with KM12 colon, over 250 µM. The TGI is 167 µM with LOX IMVI melanoma, 210 µM in the assay on RXF 393 renal, 34.3 µM in the assay on SK-OV-3 ovarian and 248 µM in the assay with SN12C renal.
With `O=c1[nH]c(C2CCCN2)nc2c1oc1ccc(Cl)cc12` (configuration not stated), the GI50 with CAKI-1 renal was over 100 µM; in the assay on HOP-92 NSCLC, 12.4 µM; in the assay on HT29 colon, over 100 µM; with IGROV1 ovarian, over 100 µM; with K-562 leukemia, over 84.4 µM; with KM12 colon it was over 100 µM. The GI50 in the assay with LOX IMVI melanoma is 68 µM; in the assay on RXF 393 renal, over 70.2 µM; with SK-OV-3 ovarian, over 100 µM; in the assay with SN12C renal, over 100 µM. For the same compound, the TGI is over 100 µM in the assay on CAKI-1 renal; over 91.1 µM with HOP-92 NSCLC; over 100 µM with HT29 colon; over 100 µM with IGROV1 ovarian; over 100 µM in the assay on K-562 leukemia; over 100 µM in the assay on KM12 colon. The TGI with LOX IMVI melanoma, in the assay with RXF 393 renal, with SK-OV-3 ovarian and with SN12C renal was over 100 µM in each case.
On to `Cn1c(COC(=O)NCCn2ccnc2)nc2c(N3CCOCC3)nc(-c3ccccc3)nc21`, for which the GI50 with CAKI-1 renal is 0.343 µM; with HOP-92 NSCLC it was 0.343 µM; with HT29 colon it was 0.372 µM; with IGROV1 ovarian, 0.657 µM; in the assay on K-562 leukemia, 0.347 µM; in the assay with KM12 colon, 1.43 µM. Besides, the GI50 in the assay with LOX IMVI melanoma is 0.152 µM; with RXF 393 renal, 0.488 µM; in the assay with SK-OV-3 ovarian, 3.63 µM; in the assay with SN12C renal, 0.727 µM. In addition, the TGI with CAKI-1 renal turned out to be 1.55 µM; in the assay on HOP-92 NSCLC it was 1.72 µM; with HT29 colon, 1.47 µM; with IGROV1 ovarian, 1.94 µM; in the assay with K-562 leukemia it was 2 µM; in the assay with KM12 colon it was 3.06 µM. In addition, the TGI in the assay with LOX IMVI melanoma stood at 0.314 µM; with RXF 393 renal it was 1.8 µM; in the assay with SK-OV-3 ovarian, 10.6 µM; with SN12C renal it was 2.06 µM.
Take `C[C@@H]1C[C@@H]([C@H](O)CC2CC(=O)NC(=O)C2)C(=O)[C@@H](C)C1`: the GI50 with CAKI-1 renal is 0.188 µM; in the assay on HOP-92 NSCLC, 0.178 µM; with HT29 colon, 0.272 µM; in the assay with IGROV1 ovarian, 0.388 µM; with K-562 leukemia, 0.165 µM; with KM12 colon, 0.215 µM. Moreover, the GI50 is 0.258 µM with LOX IMVI melanoma, 0.135 µM with RXF 393 renal, 0.275 µM in the assay on SK-OV-3 ovarian and 0.106 µM with SN12C renal. The TGI in the assay with CAKI-1 renal is 5.17 µM and 1.83 µM; with HOP-92 NSCLC, 7.57 µM and 2.05 µM; in the assay with HT29 colon, 1.97 µM and 2.4 µM; in the assay with IGROV1 ovarian, 15 µM and 3.15 µM; in the assay on K-562 leukemia, 11.9 µM and 2.93 µM; with LOX IMVI melanoma, 3.53 µM and 0.816 µM. Also, the TGI in the assay on RXF 393 renal is 1.48 µM and 0.462 µM; in the assay with SK-OV-3 ovarian, 5.31 µM and 12.2 µM; in the assay with SN12C renal, 7.38 µM and 0.793 µM.
Regarding `Cc1nnc2n1N=C(c1ccccc1)C(c1ccccc1)S2` (configuration not stated), the TGI in the assay on CAKI-1 renal, in the assay with HOP-92 NSCLC, in the assay on HT29 colon, in the assay with IGROV1 ovarian, with K-562 leukemia and in the assay with KM12 colon was over 100 µM throughout. For the same compound, the TGI is over 100 µM in the assay with LOX IMVI melanoma, 85.7 µM in the assay with RXF 393 renal, 68.2 µM in the assay on SK-OV-3 ovarian and over 100 µM in the assay on SN12C renal.
For `COC1=CC(c2ccc[nH]2)=N/C1=C\c1[nH]c(C)c(C(=O)CCCCCCCCC(=O)O[C@H]2CC[C@H]3C4CCc5cc(O)ccc5C4CC[C@]23C)c1C` (some centres not stated), the GI50 in the assay with CAKI-1 renal is 1.1 µM; in the assay with HOP-92 NSCLC, 0.167 µM; with HT29 colon it was 0.21 µM; in the assay on IGROV1 ovarian it was 1.06 µM; in the assay on K-562 leukemia, 0.267 µM; with KM12 colon, 0.379 µM. The GI50 is 0.0764 µM with LOX IMVI melanoma, 1.21 µM in the assay on RXF 393 renal, 5.02 µM with SK-OV-3 ovarian and 0.6 µM in the assay with SN12C renal. Moreover, the TGI in the assay with CAKI-1 renal was over 28.4 µM; in the assay with HOP-92 NSCLC, 1.43 µM; with HT29 colon, over 50 µM; with IGROV1 ovarian it was over 50 µM; with K-562 leukemia it was over 50 µM; with KM12 colon it was over 50 µM. In addition, the TGI in the assay with LOX IMVI melanoma was 0.267 µM; in the assay on RXF 393 renal it was 24.5 µM; with SK-OV-3 ovarian, over 50 µM; in the assay on SN12C renal, over 50 µM.
